The conditions of data set [1]: applied as a suitable topical formulation.
Data set [2] is described as follows: solid-state properties of the crystalline salt (stability, hygroscopicity). Format: physicochemical.

We go through one compound from patent publication US8207191B2, “Process, salts, composition and use” (Glaxo Group Limited, priority 2003, dated 2012).

As for `C=CC1(C)CC(OC(=O)CSC2CC3CCC(C2)N3C)C2(C)C(C)CCC3(CCC(=O)C32)C(C)C1O.O=C(O)CCC(=O)O` (stereo not drawn) [hydrosuccinate salt, hydrosuccinate salt of mutilin 14-(exo-8-methyl-8-azabicyclo[3.2.1]oct-3-ylsulfanyl)-acetate], in data set [1], the irritation result is given as “does not cause significant irritation”. For the same compound, in data set [2], the “hygroscopicity of the crystalline form” value was “non-hygroscopic” and the “stability of the crystalline form” value was “stable”.
